Starred links: 1 amine or outer side, 2 acyl side, 3 side chain; linkers in the order of their positions; H or OH if unused. Non-standard residues stand in square brackets, D forms with d. Residues, ends and D or L forms follow the SMILES beside them. Groups on a side chain read outwards from the residue. *: point of attachment. C18 diacid = O=C(O)CCCCCCCCCCCCCCCCC(=O)*; γGlu = O=C(O)[C@H](CCC(=O)[*:2])N[*:1]; Ac4c = NC1(C(=O)O)CCC1; AEEA = NCCOCCOCC(=O)O; Aib = CC(C)(N)C(=O)O
Legend:
[1] = Assay (III) ThT fibrillation assay for physical stability; assay type: physicochemical; conditions: 250 μM in 10 mM HEPES buffer, 37° C., shaking 960 rpm
Outline: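 Glucagon derivative at 250 μM in 10 mM HEPES pH 7.5 with 1 μM ThT was incubated at 37 °C under 960 rpm orbital shaking. Fluorescence (ex 444/em 485 nm) was read every 20 min and fitted for lag time (t0−2τ) and kapp (1/τ). Recovery was soluble peptide after centrifugation/filtration, by RP-HPLC, as percent of initial.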

human GLP-1 receptor = target: T1, human GLP-1 receptor (Homo sapiens, UniProt P43220); experiment: Assay (I)(a) GLP-1 receptor activation, CRE luciferase reporter gene assay in BHK cells; assay type: cell-based; conditions: without presence of serum albumin; read-out: GLP-1R EC50 (pM) [Assay (I)(a)]
T1 construct: expressed in transfected cells; host or cells: membranes of BHK cells (parent BHKTS13), clone FCW467-12A
T1 sequence (P43220 24-463): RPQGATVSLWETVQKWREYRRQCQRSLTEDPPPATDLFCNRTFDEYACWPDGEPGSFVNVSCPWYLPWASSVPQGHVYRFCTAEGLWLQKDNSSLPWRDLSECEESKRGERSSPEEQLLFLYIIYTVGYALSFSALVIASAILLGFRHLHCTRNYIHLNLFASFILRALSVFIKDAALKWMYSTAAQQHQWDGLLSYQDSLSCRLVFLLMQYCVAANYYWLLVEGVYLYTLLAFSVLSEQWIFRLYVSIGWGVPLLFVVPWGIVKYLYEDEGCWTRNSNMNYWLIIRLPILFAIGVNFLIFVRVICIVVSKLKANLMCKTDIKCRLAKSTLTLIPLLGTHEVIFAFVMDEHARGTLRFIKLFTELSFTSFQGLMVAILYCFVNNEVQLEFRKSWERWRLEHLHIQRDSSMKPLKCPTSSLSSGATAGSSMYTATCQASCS
Outline: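 Stable BHK clone expressing human GLP-1 receptor with CRE-driven firefly luciferase, 5×10EE3 cells/well in medium with 2% ovalbumin and 0.2% Pluronic F-68. Compounds at 1×10EE-13 to 1×10EE-6 M final, 3 h at 37° C.; luminescence read, EC50 (pM) from four-parameter fit.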

SMILES	ThT Assay Lag time (h) [Assay (III), pH 7.5] [1] [h]	EC50 (human GLP-1 receptor) [pM]
CC[C@H](C)[C@H](NC(=O)[C@H](CC(C)C)NC(=O)[C@H](Cc1c[nH]c2ccccc12)NC(=O)[C@H](CCC(N)=O)NC(=O)[C@@H](NC(=O)[C@H](Cc1ccccc1)NC(=O)[C@H](CCC(=O)O)NC(=O)[C@H](CCCNC(=N)N)NC(=O)[C@H](C)NC(=O)[C@H](CCCNC(=N)N)NC(=O)[C@H](CCCNC(=N)N)NC(=O)[C@H](C)NC(=O)[C@H](CC(=O)O)NC(=O)[C@H](CC(C)C)NC(=O)[C@H](Cc1ccc(O)cc1)NC(=O)[C@H](CCCCN)NC(=O)[C@H](CO)NC(=O)[C@H](CC(C)C)NC(=O)[C@H](CC(=O)O)NC(=O)[C@H](CO)NC(=O)[C@@H](NC(=O)[C@H](Cc1ccccc1)NC(=O)[C@@H](NC(=O)CNC(=O)[C@H](CCC(N)=O)NC(=O)C(C)(C)NC(=O)[C@@H](N)Cc1c[nH]cn1)[C@@H](C)O)[C@@H](C)O)C(C)C)C(=O)N[C@@H](CC(N)=O)C(=O)N[C@@H](CCCCNC(=O)CC[C@H](NC(=O)CC[C@H](NC(=O)COCCOCCNC(=O)COCCOCCNC(=O)CC[C@H](NC(=O)CCCCCCCCCCCCCCCCC(=O)O)C(=O)O)C(=O)O)C(=O)O)C(N)=O [Chem. 21, N^ε29-[(4S)-4-carboxy-4-[[(4S)-4-carboxy-4-[[2-[2-[2-[[2-[2-[2-[[(4S)-4-carboxy-4-(17-carboxyheptadecanoylamino)butanoyl]amino]ethoxy]ethoxy]acetyl]amino]ethoxy]ethoxy]acetyl]amino]butanoyl]amino]butanoyl]-[Aib2,Leu10,Ala16,Arg20,Glu21,Ile27,Lys29]-Glucagon amide] (H-H[Aib]QGTFTSDLSKYLDARRAREFVQWLINK([γGlu-γGlu-AEEA-AEEA-γGlu-C18 diacid])-NH2; N-terminus assumed)	45.0	3
CC[C@H](C)[C@H](NC(=O)[C@H](CC(C)C)NC(=O)[C@H](Cc1c[nH]c2ccccc12)NC(=O)[C@H](CCC(N)=O)NC(=O)[C@@H](NC(=O)[C@H](Cc1ccccc1)NC(=O)[C@H](CC(=O)O)NC(=O)[C@H](CCCNC(=N)N)NC(=O)[C@H](C)NC(=O)[C@H](CCCNC(=N)N)NC(=O)[C@H](CCCNC(=N)N)NC(=O)[C@H](C)NC(=O)[C@H](CC(=O)O)NC(=O)[C@H](CC(C)C)NC(=O)[C@H](Cc1ccc(O)cc1)NC(=O)[C@H](CCCCN)NC(=O)[C@H](CO)NC(=O)[C@H](CC(C)C)NC(=O)[C@H](CC(=O)O)NC(=O)[C@H](CO)NC(=O)[C@@H](NC(=O)[C@H](Cc1ccccc1)NC(=O)[C@@H](NC(=O)CNC(=O)[C@H](CCC(N)=O)NC(=O)C(C)(C)NC(=O)[C@@H](N)Cc1c[nH]cn1)[C@@H](C)O)[C@@H](C)O)C(C)C)C(=O)N[C@@H](CO)C(=O)N[C@@H](CCCCNC(=O)CC[C@H](NC(=O)CC[C@H](NC(=O)COCCOCCNC(=O)COCCOCCNC(=O)CC[C@H](NC(=O)CCCCCCCCCCCCCCCCC(=O)O)C(=O)O)C(=O)O)C(=O)O)C(N)=O [Chem. 27, N^ε29-[(4S)-4-carboxy-4-[[(4S)-4-carboxy-4-[[2-[2-[2-[[2-[2-[2-[[(4S)-4-carboxy-4-(17-carboxyheptadecanoylamino)butanoyl]amino]ethoxy]ethoxy]acetyl]amino]ethoxy]ethoxy]acetyl]amino]butanoyl]amino]butanoyl]-[Aib2,Leu10,Ala16,Arg20,Ile27,Ser28,Lys29]-Glucagon amide] (H-H[Aib]QGTFTSDLSKYLDARRARDFVQWLISK([γGlu-γGlu-AEEA-AEEA-γGlu-C18 diacid])-NH2; N-terminus assumed)	45.0	3
CC[C@H](C)[C@H](NC(=O)[C@H](CC(C)C)NC(=O)[C@H](Cc1c[nH]c2ccccc12)NC(=O)[C@H](CCC(N)=O)NC(=O)[C@@H](NC(=O)[C@H](Cc1ccccc1)NC(=O)[C@H](CCC(=O)O)NC(=O)[C@H](CCCNC(=N)N)NC(=O)[C@H](C)NC(=O)[C@H](CCCNC(=N)N)NC(=O)[C@H](CCCNC(=N)N)NC(=O)[C@H](CO)NC(=O)[C@H](CCC(=O)O)NC(=O)[C@H](CC(C)C)NC(=O)[C@H](Cc1ccc(O)cc1)NC(=O)[C@H](CCCCN)NC(=O)[C@H](CO)NC(=O)[C@H](CC(C)C)NC(=O)[C@H](CC(=O)O)NC(=O)[C@H](CO)NC(=O)[C@@H](NC(=O)[C@H](Cc1ccccc1)NC(=O)[C@@H](NC(=O)CNC(=O)[C@H](CCC(N)=O)NC(=O)C1(NC(=O)[C@@H](N)Cc2c[nH]cn2)CCC1)[C@@H](C)O)[C@@H](C)O)C(C)C)C(=O)N[C@@H](CCCCNC(=O)COCCOCCNC(=O)COCCOCCNC(=O)CC[C@H](NC(=O)CC[C@H](NC(=O)CCCCCCCCCCCCCCCCC(=O)O)C(=O)O)C(=O)O)C(=O)N[C@H](C(N)=O)[C@@H](C)O [Chem. 18, N^ε28-[2-[2-[2-[[2-[2-[2-[[(4S)-4-carboxy-4-[[(4S)-4-carboxy-4-(17-carboxyheptadecanoylamino)butanoyl]amino]butanoyl]amino]ethoxy]ethoxy]acetyl]amino]ethoxy]ethoxy]acetyl]-[Acb2,Leu10,Glu15,Arg20,Glu21,Ile27,Lys28]-Glucagon amide] (H-H[Ac4c]QGTFTSDLSKYLESRRAREFVQWLIK([AEEA-AEEA-γGlu-γGlu-C18 diacid])T-NH2)	5.0	4
CC[C@H](C)[C@H](NC(=O)[C@H](CC(C)C)NC(=O)[C@H](Cc1c[nH]c2ccccc12)NC(=O)[C@H](CCC(N)=O)NC(=O)[C@@H](NC(=O)[C@H](Cc1ccccc1)NC(=O)[C@H](CCC(=O)O)NC(=O)[C@H](CCCNC(=N)N)NC(=O)[C@H](C)NC(=O)[C@H](CCCNC(=N)N)NC(=O)[C@H](CCCNC(=N)N)NC(=O)[C@H](CO)NC(=O)[C@H](CCC(=O)O)NC(=O)[C@H](CC(C)C)NC(=O)[C@H](Cc1ccc(O)cc1)NC(=O)[C@H](CCCCN)NC(=O)[C@H](CO)NC(=O)[C@H](CC(C)C)NC(=O)[C@H](CC(=O)O)NC(=O)[C@H](CO)NC(=O)[C@@H](NC(=O)[C@H](Cc1ccccc1)NC(=O)[C@@H](NC(=O)CNC(=O)[C@H](CCC(N)=O)NC(=O)C1(NC(=O)[C@@H](N)Cc2c[nH]cn2)CCC1)[C@@H](C)O)[C@@H](C)O)C(C)C)C(=O)N[C@@H](CCCCNC(=O)CNC(=O)[C@H](CO)NC(=O)[C@H](CCC(=O)O)NC(=O)CNC(=O)[C@H](CO)NC(=O)CC[C@H](NC(=O)CC[C@H](NC(=O)CCCCCCCCCCCCCCCCC(=O)O)C(=O)O)C(=O)O)C(=O)N[C@H](C(N)=O)[C@@H](C)O [Chem. 16, N^ε28-[2-[[(2S)-2-[[(2S)-4-carboxy-2-[[2-[[(2S)-2-[[(4S)-4-carboxy-4-[[(4S)-4-carboxy-4-(17-carboxyheptadecanoylamino)butanoyl]amino]butanoyl]amino]-3-hydroxypropanoyl]amino]acetyl]amino]butanoyl]amino]-3-hydroxypropanoyl]amino]acetyl]-[Acb2,Leu10,Glu15,Arg20,Glu21,Ile27,Lys28]-Glucagon amide] (HELM PEPTIDE1{H.[O=C(C1(N[*:1])CCC1)[*:2]].Q.G.T.F.T.S.D.L.S.K.Y.L.E.S.R.R.A.R.E.F.V.Q.W.L.I.K.T.[am]}|PEPTIDE2{[O=C(O)CCCCCCCCCCCCCCCCC(=O)[*:2]].[gGlu].[gGlu].S.G.E.S.G}$PEPTIDE1,PEPTIDE2,28:R3-8:R2$$$V2.0)	16.0	5
CC[C@H](C)[C@H](NC(=O)[C@H](CC(C)C)NC(=O)[C@H](Cc1c[nH]c2ccccc12)NC(=O)[C@H](CCC(N)=O)NC(=O)[C@@H](NC(=O)[C@H](Cc1ccccc1)NC(=O)[C@H](CCC(=O)O)NC(=O)[C@H](CCCNC(=N)N)NC(=O)[C@H](C)NC(=O)[C@H](CCCNC(=N)N)NC(=O)[C@H](CCCNC(=N)N)NC(=O)[C@H](CO)NC(=O)[C@H](CCC(=O)O)NC(=O)[C@H](CC(C)C)NC(=O)[C@H](Cc1ccc(O)cc1)NC(=O)[C@H](CCCCN)NC(=O)[C@H](CO)NC(=O)[C@H](CC(C)C)NC(=O)[C@H](CC(=O)O)NC(=O)[C@H](CO)NC(=O)[C@@H](NC(=O)[C@H](Cc1ccccc1)NC(=O)[C@@H](NC(=O)CNC(=O)[C@H](CCC(N)=O)NC(=O)C(C)(C)NC(=O)[C@@H](N)Cc1c[nH]cn1)[C@@H](C)O)[C@@H](C)O)C(C)C)C(=O)N[C@@H](CCCCNC(=O)CC[C@H](NC(=O)CC[C@H](NC(=O)COCCOCCNC(=O)COCCOCCNC(=O)CC[C@H](NC(=O)CC[C@H](NC(=O)CCCCCCCCCCCCCCCCC(=O)O)C(=O)O)C(=O)O)C(=O)O)C(=O)O)C(=O)N[C@H](C(N)=O)[C@@H](C)O [Chem. 25, N^ε28-[(4S)-4-carboxy-4-[[(4S)-4-carboxy-4-[[2-[2-[2-[[2-[2-[2-[[(4S)-4-carboxy-4-[[(4S)-4-carboxy-4-(17-carboxyheptadecanoylamino)butanoyl]amino]butanoyl]amino]ethoxy]ethoxy]acetyl]amino]ethoxy]ethoxy]acetyl]amino]butanoyl]amino]butanoyl]-[Aib2,Leu10,Glu15,Arg20,Glu21,Ile27,Lys28]-Glucagon amide] (H-H[Aib]QGTFTSDLSKYLESRRAREFVQWLIK([γGlu-γGlu-AEEA-AEEA-γGlu-γGlu-C18 diacid])T-NH2; N-terminus assumed)	23.0	2

Reference: patent US10570184B2, “GLP-1/glucagon receptor co-agonists for medical use” (Novo Nordisk A/S, priority 2014, dated 2020)
